Measurements reported in patent publication US10519159B2, “Antiviral aliphatic ester prodrugs of tenofovir” (Merck Sharp & Dohme Corp., priority 2016, dated 2019).
Where two headings read alike, the source gives them in different places.

Assays:
HIV-1 (H9/IIIB strain) = experiment: Multiple round HIV-1 infection assay (Viking assay) in MT4-GFP cells; format: cell-based
Experimental: Assessing Antiviral Potency in a Multiple Round HIV-1 Infection Assay (Viking Assay)
The antiviral activity of the tenofovir prodrugs of the Examples herein was assessed in an assay that measures the rate of replication of HIV in cell culture, termed the Viking assay (Viral KINetics in Green cells) and performed as follows. HIV-1 replication was monitored using MT4-gag-GFP clone D3 (hereafter designated MT4-GFP), which are MT-4 cells modified to harbor a GFP reporter gene, the expression of which is dependent on the HIV-1 expressed proteins tat and rev. Productive infection of an MT4-GFP cell with HIV-1 results in GFP expression approximately 24 h post-infection. MT4-GFP cells were maintained at 37° C./5% CO2/90% relative humidity in RPMI 1640 supplemented with 10% fetal bovine serum, 100 U/ml penicillin/streptomycin, and 400 μg/ml G418 to maintain the reporter gene. For infections, MT4-GFP cells were placed in the same medium lacking G418 and infected overnight with HIV-1 (H9/IIIB strain) virus at an approximate multiplicity of infection of 0.01 in the same incubation conditions. Cells were then washed and re-suspended in either RPMI 1640 supplemented with 10% or 50% normal human serum (NHS) at 1.6×10^5 cells/mL (10% NHS or 50% NHS, respectively). Compound plates were prepared by dispensing compounds dissolved in DMSO into wells of 384 well poly-D-lysine-coated plates (0.2 μl/well) using an ECHO acoustic dispenser. Each compound was tested in a 10-point serial 3-fold dilution (typical final concentrations: 8.4 μM-0.42 nM). Controls included no inhibitor (DMSO only) and a combination of three antiviral agents (efavirenz, indinavir, an in-house integrase strand transfer inhibitor at final concentrations of 4 μM each). Cells were added (50 μL/well) to compound plates and the infected cells were maintained at 37° C./5% CO2/90% relative humidity.
Infected cells were quantified at two time points, ˜48 h and ˜72 h post-infection, by counting the number of green cells in each well using an Acumen eX3 scanner. The increase in the number of green cells over ˜24 h period gives the reproductive ratio, R0, which is typically 5-15 and has been shown experimentally to be in logarithmic phase (data not shown). Inhibition of R0 is calculated for each well, and IC50s determined by non-linear 4-parameter curve fitting.

[1] = Prodrug stability assay in bio-relevant media (FaSSIF with pancreatin), GI tract stability; format: in vitro ADME; details: Table 1; % parent: HPLC peak area of prodrug at 5 h / 0 h, 0.5 mg/mL pancreatin in FaSSIF, 37° C.
Experimental: Prodrug Stability Assay in Bio-Relevant Media
The following assay was employed to evaluate the stability of the prodrugs in simulated gastrointestinal tract conditions. Preparation of fasted state simulated intestinal fluid (FaSSIF) using Phares SIF Powder was carried out according to protocols from Phare Drug Delivery AG (Baselland, Switzerland). For sample preparation, 10 μL stock solutions (10 mM) of prodrug substance in DMSO was added to 990 μL of 0.5 mg/mL Pancreatin solution (Fisher CAS #8049-47-6) in FaSSIF. Two samples were prepared for each compound. If the sample was a clear solution, it was directly analyzed by HPLC. If the sample was not clear, the sample was […], maintained at 37° C. and observed 5 h later. If the sample was clear, HPLC analysis was directly performed. If the sample was still not clear, the sample was diluted with 100% ACN and assayed by HPLC. All the samples were vortexed for 3 min and observed before injection. For the diluted samples, the area is multiplied by a dilution factor when the data is analyzed. The analysis was carried out with an Agilent 1100 series HPLC with autosampler. The column was a Poroshell 120 EC-C18, 4.6×50 mm, 2.7 μm. The flow rate was 1.8 mL/min, and the injection volume was 5 or 10 μL. UV detection was in the range 210-400 nm. The mobile phase consisted of solvent A (water plus 10 mM tetrabutylammonium bromide) and solvent B (acetonitrile) with a gradient of: 90% solvent A at 0 min, changing to 95% solvent B over 6 min, maintaining for 1.5 min, then reverting to 90% solvent A over 1.6 min. The HPLC peak area of the prodrug at 5 h was divided by the HPLC peak area of the prodrug at 0 h, to generate the % claimed parent ratio, which is summarized in Table 1 for gastrointestinal (GI) Tract stability.

[2] = Table 1, MT4-GFP cells infected with HIV-1 H9/IIIB, 10% normal human serum, read-out: Viking, IC50 (10% NHS)
[3] = Table 1, MT4-GFP cells infected with HIV-1 H9/IIIB, 50% normal human serum, read-out: Viking, IC50 (50% NHS)
[4] = Human immunodeficiency virus 1, IIIB, Table 1, MT4-GFP cells infected with HIV-1 H9/IIIB, 10% normal human serum, read-out: Viking, IC50 (10% NHS)
[5] = Human immunodeficiency virus 1, IIIB, Table 1, MT4-GFP cells infected with HIV-1 H9/IIIB, 50% normal human serum, read-out: Viking, IC50 (50% NHS)
[6] = Human immunodeficiency virus 1, IIIB, Table 2, L-Ala comparison compounds, MT4-GFP cells, HIV-1 H9/IIIB, 10% normal human serum, read-out: Viking, IC50 (10% NHS)

SMILES | IC50 (HIV-1 (H9/IIIB strain); [2]) [nM] | IC50 (HIV-1 (H9/IIIB strain); [3]) [nM] | further results
CCCOC(=O)C(C)(C)NP(=O)(CO[C@H](C)Cn1cnc2c(N)ncnc21)OCC[C@H](C)C(=O)OC(C)C (single isomer, unassigned) [Example 6B] | 73.1 | 246 | 
CCCOC(=O)C(C)(C)N[P@@](=O)(CO[C@H](C)Cn1cnc2c(N)ncnc21)OCc1ccc(F)cc1C(=O)OC(C)C (single isomer, unassigned) [Example 7A] |  |  | IC50 (HIV-1 (H9/IIIB strain); [4]): 107 nM; IC50 (HIV-1 (H9/IIIB strain); [5]): 654 nM
CCCOC(=O)C(C)(C)N[P@](=O)(CO[C@H](C)Cn1cnc2c(N)ncnc21)OCc1ccc(F)cc1C(=O)OC(C)C (single isomer, unassigned) [Example 7B] |  |  | IC50 (HIV-1 (H9/IIIB strain); [4]): 1.08 nM; IC50 (HIV-1 (H9/IIIB strain); [5]): 5.55 nM; GI Tract stability [1]: 95.0%
CCCCCOC(=O)C(C)(C)NP(=O)(CO[C@H](C)Cn1cnc2c(N)ncnc21)OCCC(=O)OC(C)C (single isomer, unassigned) [Example 8A] | 0.92 | 11.3 | GI Tract stability [1]: 92.12%
CCCCCOC(=O)C(C)(C)NP(=O)(CO[C@H](C)Cn1cnc2c(N)ncnc21)OCCC(=O)OC(C)C (single isomer, unassigned) [Example 8B] | 7.59 | 49.8 | GI Tract stability [1]: 99.59%
CC(C)OC(=O)C(C)(C)COP(=O)(CO[C@H](C)Cn1cnc2c(N)ncnc21)NC(C)(C)C(=O)OC(C)C (single isomer, unassigned) [Example 9A] | 173 | 562 | 
CC(C)OC(=O)C(C)(C)COP(=O)(CO[C@H](C)Cn1cnc2c(N)ncnc21)NC(C)(C)C(=O)OC(C)C (single isomer, unassigned) [Example 9B] | 8.34 | 26.4 | GI Tract stability [1]: 98.18%
CC(C)OC(=O)C[C@H](C)OP(=O)(CO[C@H](C)Cn1cnc2c(N)ncnc21)NC(C)(C)C(=O)OC(C)C (single isomer, unassigned) [Example 10B] | 284 | 1070 | 
CCCOC(=O)C(C)(C)NP(=O)(CO[C@H](C)Cn1cnc2c(N)ncnc21)OCCc1cccc(C(=O)OC(C)C)c1 (single isomer, unassigned) [Example 11B] | 45.8 | 302 | 
CCCSC(=O)C(C)(C)NP(=O)(CO[C@H](C)Cn1cnc2c(N)ncnc21)OCCC(=O)OC(C)C (single isomer, unassigned) [Example 13B] | 99.6 | 248 | 
CCCOC(=O)C(C)(C)NP(=O)(CO[C@H](C)Cn1cnc2c(N)ncnc21)OCc1cccc(C(=O)OC(C)C)c1 (single isomer, unassigned) [Example 14B] | 16.7 | 114 | 
CCCOC(=O)[C@H](C)NP(=O)(CO[C@H](C)Cn1cnc2c(N)ncnc21)OCCC(=O)OC(C)C (some centres unmarked) [Compound 15B, reference compound] |  |  | IC50 (HIV-1 (H9/IIIB strain); [6]): 340 nM
CCCOC(=O)[C@H](C)NP(=O)(CO[C@H](C)Cn1cnc2c(N)ncnc21)OCC[C@H](C)C(=O)OC(C)C (some centres unmarked) [Compound 16B, reference compound] |  |  | IC50 (HIV-1 (H9/IIIB strain); [6]): 730 nM
CCCOC(=O)[C@H](C)NP(=O)(CO[C@H](C)Cn1cnc2c(N)ncnc21)OCc1ccc(F)cc1C(=O)OC(C)C (some centres unmarked) [Compound 17B, reference compound] |  |  | IC50 (HIV-1 (H9/IIIB strain); [6]): 570 nM
